Data published in paper PMC6572376, “N1-Propargylguanosine Modified mRNA Cap Analogs: Synthesis, Reactivity, and Applications to the Study of Cap-Binding Proteins” (Molecules, 2019).

Target: T1, hDcpS (Homo sapiens, UniProt Q96C86)
T1 construct: made in house
T1 sequence (Q96C86 1-337): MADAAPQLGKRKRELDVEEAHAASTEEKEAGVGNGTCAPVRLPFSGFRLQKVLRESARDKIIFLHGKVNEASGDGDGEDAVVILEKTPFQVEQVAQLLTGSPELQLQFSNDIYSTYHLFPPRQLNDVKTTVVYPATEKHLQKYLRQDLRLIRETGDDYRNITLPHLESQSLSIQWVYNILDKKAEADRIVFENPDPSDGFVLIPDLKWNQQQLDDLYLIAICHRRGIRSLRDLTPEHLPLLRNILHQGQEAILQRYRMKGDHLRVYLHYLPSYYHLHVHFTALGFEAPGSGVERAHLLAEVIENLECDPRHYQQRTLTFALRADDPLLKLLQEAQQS
Assay: hDcpS cleavage of fluorescent probes monitored by emission spectroscopy
Format: biochemical
Details: 30 nM hDcpS; probe 30 µM / 100 nM (legend, methods)
Procedure: Fluorescently labeled cap analogs that serve as DcpS substrates can be considered as activity probes. We performed an enzymatic cleavage test with 30 nM hDcpS and 30 µM probe to evaluate whether fluorescently labeled derivatives of cap analog 1 (probes 6–9) can be used to monitor enzymatic activity via changes in fluorescence emission. […] For the Py-labeled probe 9, the fluorescence intensity at the emission maximum increased by 50% after complete DcpS cleavage (Figure 4c and Figure S3). Nevertheless, certain previously developed probes provided higher sensitivity than the one formulated here.
Human DcpS was expressed and purified as described previously. Enzyme was stored at −80 °C at 10 µM concentration (monomer). Enzyme hDcpS was preincubated at 30 °C for 15 min before usage. […] Reaction progress was monitored by recording emission spectra, upon excitation at the wavelength characteristic for a fluorophore studied, using Cary Eclipse (Agilent Technologies, Santa Clara, CA, USA) equipped with a xenon lamp in a quartz cuvette (10 mm × 4 mm).
Figure 4 The influence of complete cleavage by hDcpS (30 nM) on the fluorescence properties of probes 6–9 (100 nM). Emission spectra before (0 min) and after (60 min) decapping scavenger (DcpS) cleavage for compounds 6 (a) and 9 (b); (c) The ratios of fluorescence intensity after and before cleavage (I/I0) for all studied probes.

C[n+]1cn([C@@H]2O[C@H](COP(=O)(O)OP(=O)([O-])OP(=O)(O)OC[C@H]3O[C@@H](n4cnc5c(=O)n(Cc6cn(CCOCCOCCNC(=O)Cc7ccc8ccc9cccc%10ccc7c8c9%10)nn6)c(N)nc54)[C@H](O)[C@@H]3O)[C@@H](O)[C@H]2O)c2nc(N)nc(O)c21 [Compound 9, m^7Gp3G-N1-Py]
Increase of fluorescence intensity at the emission maximum after complete DcpS cleavage: 50%
